Experimental data published in patent publication US9073961B2, “Substitution derivatives of N6 -benzyladenosine-5′-monophosphate, methods of preparation thereof, use thereof as medicaments, and therapeutic preparations containing these compounds” (UNIVERZITA PALACKEHO V OLOMOUCI, priority 2010, dated 2015).
pIC50: −log10 of the molar value.

Legend:
[1] = test system: CEM (T-lymphoblastoid leukemia); test: Calcein AM cytotoxicity assay, CEM; format: cell-based
Procedure, shortened: (§1)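 24 h preincubation, 37 °C/5% CO2; cpd added at t0, six 3-fold dilns, max 166.7 μM, triplicate; 72 h exposure; Calcein AM 1 μg/ml final, 1 h; fluorescence read. GI50 from dose-response (50% drop in esterase activity).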

[2] = test system: HL-60 (promyelocytic leukemia); test: Calcein AM cytotoxicity assay, HL60; format: cell-based, human; details: 72 hours incubation
Procedure, shortened: as §1

[3] = test system: Leukemia cell line CEM; test: Flow cytometry analysis of apoptosis (DNA fragmentation, sub-G1) in CEM; format: cell-based
Experimental: One of the hallmarks of apoptosis is fragmentation of DNA. It can be measured by flowcytometry of the cells stained with propidium iodide. Because the fragmentation results in a loss of a fraction of the nuclear DNA, apoptotic cells have a lower DNA content than cells in G1 phase of cell cycle and can be detected as a subG1 peak in the histogram.
Leukemia cell line CEM was cultured in cell culture medium (DMEM containing 5 g/l glucose, 2 mM glutamine, 100 U/ml penicillin, 100 μg/ml streptomycine, 10% fetal calf serum and sodium bicarbonate). 24 hours before treatment, cell suspensions were centrifuged, diluted with fresh medium to concentration of 100000 cells per ml with fresh medium and pipetted in 10 ml aliquotes Petri dishes. After an incubation for a given time period, the cells were collected by centrifugation (4° C., 600 g), washed with PBS (4° C.) and fixed with 70% ethanol at −20° C. overnight. Low molecular weight DNA fragmentse were extracted with citrate buffer (11.36 g trisodium citrate dihydrate/l). The nuclei were stained with the solution of propidium iodide in PBS (10 μg/ml) containing RNase A (60 IU per sample). After 1 hour incubation the samples were analyzed by flowcytometry (excitation 488 nm, emission above 620 nm).

[4] = test system: HOS (human osteogenic sarcoma); test: Calcein AM cytotoxicity assay, HOS; format: cell-based; details: 72 hours incubation
Procedure, shortened: as §1

[5] = test system: K-562 (human erythroleukemia); test: Calcein AM cytotoxicity assay, K-562; format: cell-based; details: 72 hours incubation
Procedure, shortened: as §1

[6] = test system: caspase-3; test: Activity of caspase-3 in CEM cells (Apo-ONE kit); format: cell-based; details: 10 μM, 12 and 24 hours
Experimental: In the course of apoptosis, caspase cascade is activated. Caspase-3 is an effector caspase that plays a role in the induction of some changes typical for apoptosis (chromatin condensation, DNA fragmentation).
Leukemia cell line CEM was cultured in cell culture medium (DMEM containing 5 g/l glucose, 2 mM glutamine, 100 U/ml peniciline, 100 μg/ml streptomycine, 10% fetal calf serum and sodium bicarbonate). 24 hours before treatment, cell suspensions were centrifuged, diluted to concentration of 500000 cells per ml with fresh medium and pipetted in 50 µL aliquotes into 96-well plate. After 12 and 24 hours of incubation with the test compound, the activity of caspase-3 was measured using commercial kit (Apo-ONE, Promega) that is based on quantification of hydrolysis of fluorogenic substrate Z-DEVD-R110 (excitation 480 nm/emission 520 nm). Reaction specifity was confirmed in a control experiment, when both test compound and caspase-3 inhibitor Ac-DEVD-CHO were added. All experiments were done in triplicate.

[7] = test system: G-361 (human malignant melanoma); test: Calcein AM cytotoxicity assay, G-361; format: cell-based; details: 72 hours incubation
Source text: Because toxic compounds negatively influence metabolic processes in cells, many standard cytotoxicity assays are based on measurement of metabolisation rate of various artificial substrates. Resulting product is then quantified e.g. by means of spectrometry. The assays can be easily modified for use in 96-well plates. For evaluation of cytotoxic effect of the novel substituted 9-substituted cytokinin derivatives of this invention, a microtiter assay based on quantification of metabolisation of Calcein AM was used. The assay is widely used in drug screening programs and in chemosensitivity testing. In the living cells, Calcein AM is enzymatically hydrolysed and accumulation of resulting calcein is manifested by green fluorescence.
In the routine screening the following cell lines have been used: CEM (T-lymphoblastoid leukemia), HL-60 (promyelocytic leukemia), K-562 (human erythroleukemia), MCF-7 (breast carcinoma), HOS (human osteogenic sarcoma), and G-361 (human malignant melanoma). Normal human fibroblasts BJ were used as a control for routine screening of the compounds. The cells were kept in Nunc/Corning 80 cm^2 plastic bottles and grown in cell culture medium (DMEM containing 5 g/l glucose, 2 mM glutamine, 100 U/ml penicilline, 100 μg/ml streptomycine, 10% fetal bovine serum and sodium hydrogencarbonate), the compounds were prepared according to the procedure of the present invention.
The cell suspensions were prepared and diluted according to the particular cell type and the expected target cell density (2.500-30.000 cells per well based on cell growth characteristics) and pippetted (80 μl) into 96-well plates. Inoculates were allowed a pre-incubation period of 24 hours at 37° C. and 5% CO2 for stabilisation. Tested compound was added in total volume of 20 μl of water at time zero. Usually, test compound was evaluated at six 3-fold dilutions. In routine testing, the highest concentration tested was 166.7 μM. All drug concentrations were tested in triplicates. Incubations of cells with the test compounds lasted for 72 hours at 37° C., in 5% CO2 atmosphere and 100% humidity. At the end of incubation period Calcein AM in PBS was added into final concentration of 1 μg/ml. After another 1 hour of incubation fluorescence (FD) was measured with the Labsystem FIA Reader Fluoroscan Ascent (Microsystems). Tumor cell survival (TCS) was estimated using the following equation: […]=(FDdrug exposed well/FDcontrol well)×100%. The GI50 value, the drug concentration causing 50% reduction of esterase activity, was calculated from the obtained dose response curves (FIG. 1).
Cytoxicity of novel compounds was tested on panel of cell lines of different histogenetic and species origin (Table 3). […] The effective novel derivatives killed tumour cells in concentrations close to 0.1-50 μM.

[8] = test system: Normal human fibroblasts BJ; test: Calcein AM cytotoxicity assay, BJ; format: cell-based; details: 72 hours incubation
Procedure, shortened: as §1

[9] = test system: MCF-7 (breast carcinoma); test: Calcein AM cytotoxicity assay, MCF7; format: cell-based; details: 72 hours incubation
Procedure, shortened: as §1

O=P(O)(O)OC[C@H]1O[C@@H](n2cnc3c(NCc4ccccc4O)ncnc32)[C@H](O)[C@@H]1O [Compound 21, 6-(2-hydroxybenzylamino)purine riboside-5′-monophosphate]
GI50 ([1]; 72 hours incubation, Calcein AM): 1.3 µM | pIC50 ([1]; FIG. 2 legend): 5.89 | GI50 [2]: 0.48 µM | time after which DNA fragmentation effect was visible [3]: ≤ 12 h | induction of DNA fragmentation (apoptotic sub-G1 fraction) ([3]; IC50, triple IC50 and fivefold IC50): induction of DNA fragmentation is dependent on the concentration of compound 21 and the time of the treatment | GI50 [4]: 2.5 µM | GI50 [5]: 4 µM | activation of caspase-3 [6]: activates caspase-3 | GI50 [7]: 13.5 µM | GI50 [8]: 43.2 µM | GI50 [9]: 10.5 µM
